Assay results as given in PubChem BioAssay (NCI).
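Test compounds were applied to cells in 96-well plates for 48 hours at 5 doses. At the TGI there is no net growth.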

Assays:
Assay in all cases: DTP human tumour cell line panel, 48 h
TK-10 renal = tested on: TK-10 renal
HOP-92 NSCLC = tested on: HOP-92 NSCLC
SK-OV-3 ovarian = tested on: SK-OV-3 ovarian
T-47D breast = tested on: T-47D breast
OVCAR-4 ovarian = tested on: OVCAR-4 ovarian
NCI-H522 lung = tested on: NCI-H522 lung
SR leukemia = tested on: SR leukemia
SK-MEL-5 melanoma = tested on: SK-MEL-5 melanoma
BT-549 breast = tested on: BT-549 breast
SF-268 CNS = tested on: SF-268 CNS
UACC-257 melanoma = tested on: UACC-257 melanoma
MALME-3M melanoma = tested on: MALME-3M melanoma
SF-295 CNS = tested on: SF-295 CNS
K-562 leukemia = tested on: K-562 leukemia
HL-60(TB) leukemia = tested on: HL-60(TB) leukemia
IGROV1 ovarian = tested on: IGROV1 ovarian
HCC-2998 colon = tested on: HCC-2998 colon
NCI-H226 lung = tested on: NCI-H226 lung
HCT-15 colon = tested on: HCT-15 colon
RXF 393 renal = tested on: RXF 393 renal
U251 CNS = tested on: U251 CNS
PC-3 prostate = tested on: PC-3 prostate
LOX IMVI melanoma = tested on: LOX IMVI melanoma
CAKI-1 renal = tested on: CAKI-1 renal
SNB-19 CNS = tested on: SNB-19 CNS
SNB-75 CNS = tested on: SNB-75 CNS
DU-145 prostate = tested on: DU-145 prostate
NCI-H460 lung = tested on: NCI-H460 lung
UO-31 renal = tested on: UO-31 renal
HCT-116 colon = tested on: HCT-116 colon
EKVX NSCLC = tested on: EKVX NSCLC
MDA-N = tested on: MDA-N
OVCAR-8 ovarian = tested on: OVCAR-8 ovarian
SN12C renal = tested on: SN12C renal
RPMI-8226 leukemia = tested on: RPMI-8226 leukemia
786-0 renal = tested on: 786-0 renal
HOP-62 NSCLC = tested on: HOP-62 NSCLC
OVCAR-5 ovarian = tested on: OVCAR-5 ovarian
ACHN renal = tested on: ACHN renal
SW-620 colon = tested on: SW-620 colon
CCRF-CEM leukemia = tested on: CCRF-CEM leukemia
NCI/ADR-RES ovarian = tested on: NCI/ADR-RES ovarian
OVCAR-3 ovarian = tested on: OVCAR-3 ovarian
COLO 205 colon = tested on: COLO 205 colon
MOLT-4 leukemia = tested on: MOLT-4 leukemia
MDA-MB-231 breast = tested on: MDA-MB-231 breast
UACC-62 melanoma = tested on: UACC-62 melanoma
SK-MEL-28 melanoma = tested on: SK-MEL-28 melanoma
MDA-MB-435 = tested on: MDA-MB-435
SK-MEL-2 melanoma = tested on: SK-MEL-2 melanoma
KM12 colon = tested on: KM12 colon
MCF7 breast = tested on: MCF7 breast
HS 578T breast = tested on: HS 578T breast
A549 NSCLC = tested on: A549 NSCLC
NCI-H23 lung = tested on: NCI-H23 lung
SF-539 CNS = tested on: SF-539 CNS
HT29 colon = tested on: HT29 colon
M14 melanoma = tested on: M14 melanoma
A498 renal = tested on: A498 renal

For `c1ccc2c(c1)CC1c3[nH]c4ccccc4c3CCN21` (stereo unspecified), the TGI (TK-10 renal) was > 10 µM, the TGI (HOP-92 NSCLC) was > 10 µM and the TGI (SK-OV-3 ovarian) was > 10 µM. The TGI (T-47D breast) was > 10 µM, the TGI (OVCAR-4 ovarian) was > 10 µM and the TGI (NCI-H522 lung) was > 10 µM. The TGI (SR leukemia) was > 10 µM, the TGI (SK-MEL-5 melanoma) was > 10 µM and the TGI (BT-549 breast) was > 10 µM. The TGI (SF-268 CNS) was > 10 µM, the TGI (UACC-257 melanoma) was > 10 µM and the TGI (MALME-3M melanoma) was > 10 µM. The TGI (SF-295 CNS) was > 10 µM, the TGI (K-562 leukemia) was > 10 µM and the TGI (HL-60(TB) leukemia) was > 10 µM. For the same molecule, the TGI (IGROV1 ovarian) was > 10 µM, the TGI (HCC-2998 colon) was > 10 µM and the TGI (NCI-H226 lung) was > 10 µM. The TGI (HCT-15 colon) was > 10 µM, the TGI (RXF 393 renal) was > 10 µM and the TGI (U251 CNS) was > 10 µM. For the same molecule, the TGI (PC-3 prostate) was > 10 µM, the TGI (LOX IMVI melanoma) was > 10 µM and the TGI (CAKI-1 renal) was > 10 µM. The TGI (SNB-19 CNS) was > 10 µM, the TGI (SNB-75 CNS) was > 10 µM and the TGI (DU-145 prostate) was > 10 µM. For the same molecule, the TGI (NCI-H460 lung) was > 10 µM, the TGI (UO-31 renal) was > 10 µM and the TGI (HCT-116 colon) was > 10 µM. The TGI (EKVX NSCLC) was > 10 µM, the TGI (MDA-N) was > 10 µM and the TGI (OVCAR-8 ovarian) was > 10 µM. For the same molecule, the TGI (SN12C renal) was > 10 µM, the TGI (RPMI-8226 leukemia) was > 10 µM and the TGI (786-0 renal) was > 10 µM. The TGI (HOP-62 NSCLC) was > 10 µM, the TGI (OVCAR-5 ovarian) was > 10 µM and the TGI (ACHN renal) was > 10 µM. For the same molecule, the TGI (SW-620 colon) was > 10 µM, the TGI (CCRF-CEM leukemia) was > 10 µM and the TGI (NCI/ADR-RES ovarian) was > 10 µM. The TGI (OVCAR-3 ovarian) was > 10 µM, the TGI (COLO 205 colon) was > 10 µM and the TGI (MOLT-4 leukemia) was > 10 µM. For the same molecule, the TGI (MDA-MB-231 breast) was > 10 µM, the TGI (UACC-62 melanoma) was > 10 µM and the TGI (SK-MEL-28 melanoma) was > 10 µM. For the same molecule, the TGI (MDA-MB-435) was > 10 µM, the TGI (SK-MEL-2 melanoma) was > 10 µM and the TGI (KM12 colon) was > 10 µM. For the same molecule, the TGI (MCF7 breast) was > 10 µM, the TGI (HS 578T breast) was > 10 µM and the TGI (A549 NSCLC) was > 10 µM. The TGI (NCI-H23 lung) was > 10 µM, the TGI (SF-539 CNS) was > 10 µM and the TGI (HT29 colon) was > 10 µM. For the same molecule, the TGI (M14 melanoma) was > 10 µM.
`CN(C)CCCn1c2ccccc2c2cnccc21` was tested, and the TGI (TK-10 renal) was 84.9 µM, the TGI (HOP-92 NSCLC) was > 100 µM and the TGI (SK-OV-3 ovarian) was > 100 µM. For the same molecule, the TGI (T-47D breast) was > 100 µM, the TGI (OVCAR-4 ovarian) was > 100 µM and the TGI (NCI-H522 lung) was > 100 µM. For the same molecule, the TGI (SR leukemia) was 43.4 µM, the TGI (SK-MEL-5 melanoma) was 42.5 µM and the TGI (BT-549 breast) was > 100 µM. For the same molecule, the TGI (SF-268 CNS) was > 100 µM, the TGI (UACC-257 melanoma) was 39.3 µM and the TGI (MALME-3M melanoma) was 83.3 µM. The TGI (SF-295 CNS) was > 100 µM, the TGI (K-562 leukemia) was > 100 µM and the TGI (HL-60(TB) leukemia) was 99.8 µM. For the same molecule, the TGI (IGROV1 ovarian) was > 100 µM, the TGI (NCI-H226 lung) was 59.7 µM and the TGI (HCT-15 colon) was > 100 µM. For the same molecule, the TGI (A498 renal) was > 100 µM, the TGI (RXF 393 renal) was > 100 µM and the TGI (U251 CNS) was > 100 µM. The TGI (PC-3 prostate) was > 100 µM, the TGI (LOX IMVI melanoma) was 52.6 µM and the TGI (CAKI-1 renal) was > 100 µM. The TGI (SNB-19 CNS) was > 100 µM, the TGI (SNB-75 CNS) was > 100 µM and the TGI (DU-145 prostate) was > 100 µM. For the same molecule, the TGI (NCI-H460 lung) was 67 µM, the TGI (UO-31 renal) was 47.9 µM and the TGI (HCT-116 colon) was > 100 µM. The TGI (EKVX NSCLC) was > 100 µM, the TGI (MDA-N) was > 100 µM and the TGI (OVCAR-8 ovarian) was > 100 µM. The TGI (SN12C renal) was 74.6 µM, the TGI (RPMI-8226 leukemia) was 71.6 µM and the TGI (786-0 renal) was > 100 µM. For the same molecule, the TGI (HOP-62 NSCLC) was > 100 µM, the TGI (OVCAR-5 ovarian) was > 100 µM and the TGI (ACHN renal) was > 100 µM. For the same molecule, the TGI (SW-620 colon) was > 100 µM, the TGI (CCRF-CEM leukemia) was > 100 µM and the TGI (NCI/ADR-RES ovarian) was > 100 µM. The TGI (OVCAR-3 ovarian) was > 100 µM, the TGI (COLO 205 colon) was 30.2 µM and the TGI (MOLT-4 leukemia) was 83.9 µM. The TGI (MDA-MB-231 breast) was > 100 µM, the TGI (UACC-62 melanoma) was > 100 µM and the TGI (SK-MEL-28 melanoma) was > 100 µM. For the same molecule, the TGI (MDA-MB-435) was > 100 µM, the TGI (SK-MEL-2 melanoma) was > 100 µM and the TGI (KM12 colon) was > 100 µM. For the same molecule, the TGI (MCF7 breast) was > 100 µM, the TGI (HS 578T breast) was > 100 µM and the TGI (A549 NSCLC) was > 100 µM. For the same molecule, the TGI (NCI-H23 lung) was > 100 µM, the TGI (SF-539 CNS) was 48.2 µM and the TGI (HT29 colon) was > 100 µM. The TGI (M14 melanoma) was 33 µM.
